Some results are limits rather than exact numbers.

Here are results for 9 molecules from patent publication US20240228490A1, “HETEROCYCLIC DERIVATIVE INHIBITOR AND PREPARATION METHOD THEREFOR AND APPLICATION THEREOF” (Shanghai Hansoh Biomedical Co., Ltd., priority 2021, published 2024).

In one data set the target is PARP1 enzyme (Homo sapiens (Human), UniProt P09874). Put plainly: Inhibitory activity on PARP1 enzyme (chemiluminescence). The class given is biochemical. The procedure: The inhibitory activity of the compounds on PARP1 enzyme was determined by the chemiluminescence method in the experiment. The experiment was carried out in a 384-well plate. Coating histones in a 384-well plate: 5×histone solution was diluted 5 folds with PBS, added to a 384-well ELISA plate (25 μL per well), and incubated at 4° C. overnight. […] A mixture of PARP reaction biotin-labeled substrate, activated DNA, 10×PARP buffer and water was added (12.5 μL per well). Compound solutions with different concentrations were formulated using the experimental buffer (10% DMSO aqueous solution containing 1.25 mM DTT). The final detection concentration started from 100 nM, with 3-fold dilution and 8 concentrations. The compound solutions were added to the reaction wells of the 384-well plate (2.5 μL per well). 2.5 μL of 10% DMSO aqueous solution containing 1.25 mM DTT was added to the positive control well and blank well (2.5 μL per well). […] The plate was centrifuged at 1000 rpm for 1 minute, and reacted at room temperature for 60 minutes. […] Streptavidin-HRP solution diluted 50 folds with Blocking buffer 3 was added (25 μL per well), and the plate was incubated at room temperature for 30 minutes. […] The luminescence reaction solution obtained by mixing ECL substrate A and ELISA ECL substrate B (1:1) was added (50 μL per well) for reaction. The chemiluminescence values were measured immediately with a BioTek Synergy H1 or Envision instrument.
PARP1 enzyme, sequence (P09874 whole entry): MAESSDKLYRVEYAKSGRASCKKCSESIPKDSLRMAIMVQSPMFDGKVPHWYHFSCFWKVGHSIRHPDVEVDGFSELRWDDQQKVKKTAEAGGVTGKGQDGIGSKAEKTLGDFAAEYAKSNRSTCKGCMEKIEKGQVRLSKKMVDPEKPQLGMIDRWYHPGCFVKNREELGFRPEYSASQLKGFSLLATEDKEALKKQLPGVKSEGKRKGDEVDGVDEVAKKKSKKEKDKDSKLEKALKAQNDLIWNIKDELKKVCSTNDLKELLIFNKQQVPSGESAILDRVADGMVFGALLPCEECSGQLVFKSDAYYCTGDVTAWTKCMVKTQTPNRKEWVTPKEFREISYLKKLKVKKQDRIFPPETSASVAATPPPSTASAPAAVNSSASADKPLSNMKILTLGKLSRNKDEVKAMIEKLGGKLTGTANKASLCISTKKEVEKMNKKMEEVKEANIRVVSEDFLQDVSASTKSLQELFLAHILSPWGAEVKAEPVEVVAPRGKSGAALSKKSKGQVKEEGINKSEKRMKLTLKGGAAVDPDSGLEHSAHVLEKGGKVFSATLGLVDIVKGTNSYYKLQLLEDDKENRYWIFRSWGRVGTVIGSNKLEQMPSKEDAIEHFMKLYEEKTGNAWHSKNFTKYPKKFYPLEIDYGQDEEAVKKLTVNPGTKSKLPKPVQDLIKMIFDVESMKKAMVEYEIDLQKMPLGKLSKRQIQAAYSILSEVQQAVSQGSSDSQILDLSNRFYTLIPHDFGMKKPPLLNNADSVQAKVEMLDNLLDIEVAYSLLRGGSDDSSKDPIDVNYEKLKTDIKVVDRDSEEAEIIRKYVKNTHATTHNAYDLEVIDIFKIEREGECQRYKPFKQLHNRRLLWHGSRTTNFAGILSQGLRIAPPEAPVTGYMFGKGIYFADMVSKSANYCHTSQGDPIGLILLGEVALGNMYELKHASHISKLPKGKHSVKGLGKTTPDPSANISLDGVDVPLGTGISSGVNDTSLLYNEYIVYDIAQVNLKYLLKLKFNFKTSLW
The chemiluminescence values were measured with a BioTek Synergy H1 or Envision instrument. The inhibition rate was calculated, and the concentration and inhibition rate were fitted to a nonlinear regression curve using Graphpad Prism software to obtain the IC50 value.

The nature of data set [1]: Pharmacokinetic assay in Balb/C mice. The following applies: male, mouse, plasma, po, 1 mg/kg.
Procedure: Balb/C mice were used as test animals.
Male Balb/C mice (6 mice per example), purchased from Shanghai Jiesijie Laboratory Animal Co., LTD, with Certificate No.: SCXK (Shanghai) 2013-0006 N0.311620400001794.
5 g of hydroxyethyl cellulose (HEC, CMC-Na, viscosity: 800-1200 Cps) was weighed and dissolved in 1000 mL of purified water, followed by the addition of 10 g of Tween 80. The mixture was mixed well to obtain a clear solution.
2.05 mg of the compound was weighed and dissolved in the solution. The mixture was shaken well, crushed in a cell crusher for 1 minute, and sonicated for 15 minutes to obtain a suspension with a concentration of 0.1 mg/mL.
After an overnight fast, male Balb/C mice were administered p.o. with the test compound at a dose of 1 mg/kg and a volume of 10 mL/kg.
0.04 mL of blood was taken from the orbit of the mouse at 0, 0.5, 1, 2, 4, 6, 8 and 24 hours after the administration. The samples were stored in EDTA-K2 tubes, and centrifuged for 6 minutes at 4° C., 6000 rpm to separate the plasma. The plasma samples were stored at −80° C. The mouse was fed 4 hours after the administration.
• Liquid chromatography condition: Shimadzu LC-20AD pump • Mass spectrometry condition: AB Sciex API 4000 mass spectrometer • Chromatographic column: phenomenex Gemiu 5 μm C18 50×4.6 mm • Mobile phase: Eluent A was 0.1% formic acid in water, and Eluent B was acetonitrile • Flow rate: 0.8 mL/min • Elution time: 0-4.0 minutes, the eluent is as follows:
The main parameters of pharmacokinetics were calculated by WinNonlin 8.2.
A short description of data set [2]: Bidirectional permeability through Caco-2 cell model. The following applies: human. (Caco-2 cells form a polarised layer with tight junctions and transporters.)
Procedure: (§1) 100 μL of transport buffer (HBSS containing 10 μM test compound, 0.5% BSA, and 0.5% DMSO) was added to the administration end of A to B • b. 300 μL of transport buffer (HBSS containing 0.5% BSA) was added to the receiving end of A to B • c. 300 μL of transport buffer (HBSS containing 10 μM test compound, 0.5% BSA, and 0.5% DMSO) was added to the administration end of B to A • d. 100 μL of transport buffer (HBSS containing 0.5% BSA) was added to the receiving end of B to A • e. Incubation for 2 hours • d. Samples were taken, processed and detected by mass spectrometry.
(§2) • Instrument: liquid chromatography; • Chromatographic column: Waters XSelect HSS T3 C18 (2.1*50 mm, 2.5 μm); • Mobile phase: phase A: water containing 0.1% formic acid; phase B: acetonitrile containing 0.1% formic acid.
(§3) • Instrument: API4000 liquid chromatography-mass spectrometer; • Ion source: electrospray ionization source (ESI); • Detection method: positive ion detection; • Scan mode: multiple reaction monitoring (MRM) mode.
Data set [3] has as its system human colorectal cancer cell line DLD-1 BRCA2−/− subcutaneous xenograft tumor. Put plainly: In vivo pharmacodynamic study in DLD-1 BRCA2−/− subcutaneous xenograft tumor model. The following applies: oral, once/day, 21 days.
Procedure: BALB/c nude mice, 6 to 8 weeks old, 9, purchased from the Experimental Animal Management Department of Shanghai Institute of Family Planning
The recovered cells were plated in a cell culture flask (the cell type, date, name of the experimenter and the like were labeled on the wall of the flask), and cultured in a CO2 incubator (the temperature was 37° C. and the CO2 concentration was 5% in the incubator). • b. Cells were passaged once every three days. After passage, the cells continued to be cultured in the CO2 incubator. This process was repeated until the number of cells was sufficient for the in vivo efficacy test. • c. The cultured cells were collected, and counted with an automatic cell counter. According to the counting results, the cells were resuspended with PBS to obtain a cell suspension (density: 5×10^7/mL), which was placed in an ice box for later use.
The nude mice were labeled with disposable universal ear tags for rats and mice before inoculation. • b. During the inoculation, the cell suspension was mixed well. 0.1 to 1 mL of the cell suspension was drawn with a 1 mL syringe, air bubbles were removed, and then the syringe was placed on an ice pack for later use. • c. The nude mouse was bound with the left hand. The position on the right side of the back close to the right shoulder of the nude mouse (inoculation site) was disinfected with 75% alcohol. Inoculation started after 30 seconds. • d. The test nude mice were successively inoculated (each mouse was inoculated with 0.1 mL of cell suspension).
According to the tumor growth, the tumor was measured on 10 to 18 days after the inoculation, and the tumor size was calculated.
Calculation of tumor volume: tumor volume (mm^3)=length (mm)×width (mm)×width (mm)/2 • b. The tumor-bearing mice were grouped according to their body weight and tumor size by random grouping. • c. […] Tumors were measured and the mice were weighed twice a week after the administration of test compounds began. • e. Animals were euthanized at the end of the experiment. • f. Data were processed by using softwares such as Excel.
Data set [4] has as its system BRCA2 Knockout DLD-1 cells. Put plainly: Inhibition of proliferation of BRCA2 Knockout DLD-1 cells (CellTiter-Glo). In kind it is cell-based. The following applies: Homo sapiens, about 144 hours incubation. As to the method:
BRCA2 Knockout DLD-1 cells were cultured using RPMI1640 culture medium containing 10% FBS to an appropriate cell density. The cells were collected, and adjusted to an appropriate cell concentration using the complete culture medium. The cell suspension was spread on a 96-well plate (90 μL per well), and placed in a 37° C., 5% CO2 incubator overnight. Compound solutions of different concentrations were formulated using DMSO and culture medium, and vehicle control was set up. The compound solutions were added to the 96-well plate (10 μL per well), and the plate was incubated in a 37° C., 5% CO2 incubator for about 144 hours. CellTiter-Glo solution was added, and the plate was shaken to mix evenly, and incubated in the dark for 10 to 30 minutes. The values were measured with a Synergy H1 or Envision microplate reader.
The inhibition rate was calculated using the luminescence signal value. The concentration and inhibition rate were fitted to a nonlinear regression curve using Graphpad Prism software to obtain the IC50 value.
A general note: ATP-based viability assays read luminescence as a measure of living cells.

Another data set can be described thus: in vivo. The following applies: male, Balb/C, mouse, po, 1 mg/kg.
The nature of a further data set: in vitro. The settings on record: human, Caco-2.

Procedure for in vitro: as §1, §2, §3

With `CCc1cc2ncc(CN3CCN(c4cnc5c(NC)nccc5c4)CC3)cc2[nH]c1=O` [Example 3, 3-Ethyl-7-((4-(8-(methylamino)-1,7-naphthyridin-3-yl)piperazin-1-yl)methyl)-1,5-naphthyridin-2(1H)-one], the 50% inhibitory concentration (IC50) at PARP1 enzyme turned out to be 0.4 nM. Also, in data set [1], the AUC(0-t) turned out to be 12700 ng·h/mL, the concentration peaked (Cmax) at 1570 ng/mL, the Tmax stood at 0.5 h and the half-life was 3.7 h. In data set [2], the Papp A→B at 2 h, 10 μM was found to be 7.15 ×10⁻⁶ cm/s; the Papp B→A at 2 h, 10 μM stood at 24.1 ×10⁻⁶ cm/s; the efflux ratio at 2 h, 10 μM came to 3.4. In addition, in data set [3], the “Animal's body weight” value is recorded as “no significant decrease” and the “Tumor growth inhibition rate TGI (%)” value is reported as over 90%.
In the case of `CCc1cc2ncc(CN3CC=C(c4ccc(C(=O)NC)nc4F)CC3)cc2[nH]c1=O` [Example 36, 1′-((7-Ethyl-6-oxo-5,6-dihydro-1,5-naphthyridin-3-yl)methyl)-2-fluoro-N-methyl-1′,2′,3′,6′-tetrahydro-[3,4′-bipyridine]-6-carboxamide], the IC50 on PARP1 enzyme was 0.8 nM. For the same molecule, in data set [4], the IC50 was 1.6 nM. In data set [1], the AUC(0-t) turned out to be 61900 ng·h/mL, the Cmax came to 6550 ng/mL, the time of peak concentration (Tmax) is 0.5 h and the half-life was 4.6 h. In data set [2], the Papp A→B at 2 h, 10 μM amounted to 14.8 ×10⁻⁶ cm/s; the Papp B→A at 2 h, 10 μM was found to be 15.6 ×10⁻⁶ cm/s; the efflux ratio at 2 h, 10 μM worked out at 1.1.
In the case of `CCc1cc2ncc(CN3CC=C(c4ccc(C(=O)NC5CC5)nc4)CC3)cc2[nH]c1=O` [Example 29, N-Cyclopropyl-1′-((7-ethyl-6-oxo-5,6-dihydro-1,5-naphthyridin-3-yl)methyl)-1′,2′,3′,6′-tetrahydro-[3,4′-bipyridine]-6-carboxamide], on PARP1 enzyme, the IC50 was determined as 0.98 nM. Further, the IC50 in data set [4] is 1.9 nM. For the same molecule, in data set [1], the AUC(0-t) came out at 60600 ng·h/mL, the Cmax was 8270 ng/mL, the Tmax is 0.5 h and the half-life is 3.7 h. Also, in data set [2], the Papp A→B at 2 h, 10 μM was found to be 12.2 ×10⁻⁶ cm/s; the Papp B→A at 2 h, 10 μM was determined as 19 ×10⁻⁶ cm/s; the efflux ratio at 2 h, 10 μM was determined as 1.6. Further, in data set [3], the “Animal's body weight” value is “no significant decrease” and the “Tumor growth inhibition rate TGI (%)” value is recorded as over 90%.
Turning to `CCc1cc2ncc(CN3CC=C(c4cnc(C(=O)NC)s4)CC3)cc2[nH]c1=O` [Example 46, 5-(1-((7-Ethyl-6-oxo-5,6-dihydro-1,5-naphthyridin-3-yl)methyl)-1,2,3,6-tetrahydropyridin-4-yl)-N-methylthiazole-2-carboxamide], the IC50 at PARP1 enzyme was found to be 0.6 nM. Moreover, the “Tumor growth inhibition rate TGI (%)” value in data set [3] is over 90%.
In data set [2], `CCc1cc2ncc(CN3CCC(c4ccc(C(=O)NC)nc4)CC3)cc2[nH]c1=O` [Example 2, 5-(1-((7-Ethyl-6-oxo-5,6-dihydro-1,5-naphthyridin-3-yl)methyl)piperidin-4-yl)-N-methylpicolinamide] registered a Papp A→B at 2 h, 10 μM of 9.42 ×10⁻⁶ cm/s and a Papp B→A at 2 h, 10 μM of 13.5 ×10⁻⁶ cm/s.
`CCc1cc2ncc(CN3CCN(c4cnc5c(NC)nc(C)cc5c4)CC3)cc2[nH]c1=O` [Example 72, 3-Ethyl-7-((4-(6-methyl-8-(methylamino)-1,7-naphthyridin-3-yl)piperazin-1-yl)methyl)-1,5-naphthyridin-2(1H)-one]: the IC50 in data set [4] is 4.8 nM. Also, in data set [2], the Papp A→B at 2 h, 10 μM was 5.23 ×10⁻⁶ cm/s; the Papp B→A at 2 h, 10 μM was 12.7 ×10⁻⁶ cm/s; the efflux ratio at 2 h, 10 μM is 2.5.
Take `CNC(=O)c1ccc(C2=CCN(Cc3cnc4cc(C5CC5)c(=O)[nH]c4c3)CC2)cn1` [Example 45, 1′-((7-Cyclopropyl-6-oxo-5,6-dihydro-1,5-naphthyridin-3-yl)methyl)-N-methyl-1′,2′,3′,6′-tetrahydro-[3,4′-bipyridine]-6-carboxamide]: the IC50 at PARP1 enzyme turned out to be 0.8 nM. In addition, the IC50 in data set [4] was 3.5 nM. Also, in the data set “in vivo”, the AUC(0-t) was determined as 221000 ng·h/mL, the Cmax amounted to 8980 ng/mL, the Tmax came out at 1 h and the half-life was 23 h. Moreover, in the data set “in vitro”, the Papp A→B at 2 h, 10 μM is 9.8 ×10⁻⁶ cm/s; the Papp B→A at 2 h, 10 μM worked out at 15.3 ×10⁻⁶ cm/s; the efflux ratio at 2 h, 10 μM stood at 1.6.
Turning to `CCc1cc2ncc(CN3CC=C(c4ccc(C(=O)NC)nc4C#N)CC3)cc2[nH]c1=O` [Example 35, 2-Cyano-1′-((7-ethyl-6-oxo-5,6-dihydro-1,5-naphthyridin-3-yl)methyl)-N-methyl-1′,2′,3′,6′-tetrahydro-[3,4′-bipyridine]-6-carboxamide], the IC50 at PARP1 enzyme stood at 1 nM. For the same molecule, the IC50 in data set [4] was 2.3 nM. In the data set “in vivo”, the AUC(0-t) came to 43200 ng·h/mL, the highest level (Cmax) was 6100 ng/mL, the Tmax was 0.5 h and the half-life is 2.7 h. For the same molecule, in the data set “in vitro”, the Papp A→B at 2 h, 10 μM turned out to be 5.19 ×10⁻⁶ cm/s; the Papp B→A at 2 h, 10 μM is 15.7 ×10⁻⁶ cm/s; the efflux ratio at 2 h, 10 μM is 3. Further, in data set [3], the “Tumor growth inhibition rate TGI (%)” value was over 90%.
Consider `CCc1cc2ncc(C(C)N3CC=C(c4ccc(C(=O)NC)nc4)CC3)cc2[nH]c1=O` (centres unmarked) [Example 93, 1′-(1-(7-Ethyl-6-oxo-5,6-dihydro-1,5-naphthyridin-3-yl)ethyl)-N-methyl-1′,2′,3′,6′-tetrahydro-[3,4′-bipyridine]-6-carboxamide], for which the values for the IC50 (on PARP1 enzyme; in data set [4]) were 2.1 nM and 3.6 nM, respectively.

In general, IC50 refers to the midpoint of a concentration-inhibition curve. For orientation: AUC(0-t) means the area under the concentration-time curve up to a stated or last time point. Higher therefore signals more exposure. The Cmax is the maximum level reached in the sampled fluid or tissue. In general, Tmax refers to the time from dosing to the highest level. A word on the half-life: it is the time needed for the level to fall by half in the phase considered. A lower half-life goes with fast loss. In general, Papp A→B refers to the apparent permeability from the apical to the basolateral side of a cell layer. Low readings indicate slow passage, high ones fast passage. What is called Papp B→A is the apparent permeability from the basolateral to the apical side of a cell layer. By efflux ratio is commonly meant the permeability from basolateral to apical divided by that in the opposite direction, in the common usage.
